In general, IC50 refers to the point on the concentration scale where inhibition reaches its midpoint.

The experiment deals with X-box-binding protein 1 (Homo sapiens) (UniProt P17861). In words: inhibitors of XBP1 reporter signal, dose response, counter-screen, cell-based (AID 504313).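 Also: CHO cells carrying an XBP1 reporter stimulated with tunicamycin; potency is for inhibition of the tunicamycin-induced reporter signal.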 The note with it: XBP1 reporter cell assay, percent of control. (In general: Counterscreens check selectivity or assay interference.)

SMILES strings stand for the structures. Activity calls are given as the source filed them. No rule for the calls is given here. A value given as a limit tells only on which side of the number the result lay.

In the case of `NC(=O)CC(NC(=O)Cc1cccc2ccccc12)c1ccc(NCc2cc(F)ccc2F)c([N+](=O)[O-])c1` (stereo not drawn), the IC50 is > 10 µM (inactive).

Turning to `COc1ccc(OCc2cccc(C(=O)O)c2)cc1`, the 50% inhibitory concentration (IC50) is 0.4 µM.

As for `CC(C)Cn1c(=O)[nH]c(=O)c2c(C(F)(F)F)cc(-c3ccccc3)nc21`, the IC50 is > 10 µM (inactive).

With `O=C(Nc1cccc(F)c1)N(Cc1ccc(Cl)cc1)CC(O)C(F)(F)F` (stereo not drawn), the IC50 result is “inactive”.

With `OC(COCC(F)(F)C(F)(F)C(F)(F)C(F)F)Cn1c2ccccc2c2ccccc21` (stereo not drawn), the IC50 entry is “inactive”.

As to `O=C(N/N=C/c1ccc(F)cc1)c1c(O)c2ccccc2[nH]c1=O`, the IC50 is > 10 µM (inactive).

On to `Cc1ccc(C(=O)Nc2cnc3ccccc3c2)cc1`, for which the half-maximal inhibitory concentration (IC50) is 4.09 µM.

As for `O=C1NC[C@@H](Cc2cccc3ccccc23)N(CCc2cc(C(F)(F)F)cc(C(F)(F)F)c2)C1=O`, the IC50 entry is “inactive”.

`CCOc1cc(CNc2ccc(O)cc2)ccc1OCc1ccc(Cl)cc1Cl`: the IC50 result is “inactive”.

On to `CCCC(=O)OCCNc1cc(Sc2nc3ccccc3[nH]2)c2nonc2c1[N+](=O)[O-]`, for which the IC50 entry was “inactive”.

For `Cc1ccc(NC(=O)CCl)cc1S(=O)(=O)N1CCCCCC1`, the IC50 entry was “inactive”.

On to `Cc1sc(NC(=O)c2cccc([N+](=O)[O-])c2)c(C(N)=O)c1-c1ccc(C(C)(C)C)cc1`, for which the IC50 is 4.11 µM.

For `COc1ccc(N=CC2=C(O)c3ccccc3C2=O)c(OC)c1`, the IC50 result is “inactive”.

As to `N#CC(C#N)=C1C=CC=CN1/C(=C\c1ccccc1Cl)C(=O)c1ccccc1`, the IC50 result is “inactive”.

On to `O=C(N/N=C/c1cccc(F)c1)c1c(O)c2ccccc2[nH]c1=O`, for which the IC50 result was “inactive”.

Consider `CCOC(=O)C1=C(c2ccccc2)O/C(=C(/C#N)C(F)(F)F)S1`, for which the IC50 is > 10 µM (inactive).

For `O=[N+]([O-])c1ccc(S(=O)(=O)CC(CN2CCCCC2)N2CCCCC2)cc1` (stereo not drawn), the IC50 entry was “inactive”.

As to `C=CCc1cc(C)ccc1OCC(O)CN1CCN(c2ccccc2)CC1` (stereo not drawn), the IC50 entry is “inactive”.

For `O=Cc1s/c(=N\S(=O)(=O)c2ccccc2)n(CCCCl)c1Cl`, the IC50 entry is “inactive”.

Regarding `O=[N+]([O-])c1ccc(COc2ccc(-c3[nH]ncc3-c3ccccc3)c(O)c2)cc1`, the IC50 was > 10 µM (inactive).

Regarding `O=C(Nc1ccc(C(F)(F)F)cc1)c1cc(-c2cccnc2)nc2ccc(Br)cc12`, the IC50 is > 10 µM (inactive).

For `CCCCc1ccc(Nc2nc(CCC)cc(=O)[nH]2)cc1`, the IC50 is 2.24 µM.

As for `O=c1c(Cl)c(Cl)cnn1Cc1nnc(-c2ccccc2Br)o1`, the IC50 entry is “inactive”.

Regarding `C#CC(=O)N(c1cc(OC)ccc1OC)C(C(=O)NC1CCCC1)c1cccs1` (stereo not drawn), the IC50 result is “inactive”.

On to `O=C(/C=C/Sc1ncn[nH]1)c1ccc(Cl)cc1`, for which the IC50 result is “inactive”.

As to `COc1ccccc1NC(=O)c1c(Nc2ccccc2C)sc(C(=O)Nc2cccc(Cl)c2)c1N`, the IC50 is > 10 µM (inactive).

As to `O=C(c1nnsc1S(=O)(=O)c1ccc(Cl)cc1)N1CCOCC1`, the IC50 result was “inactive”.

With `COC(=O)c1sc(-c2ccc(C(C)(C)C)cc2)cc1NC(=O)c1ccccc1C(=O)O`, the IC50 was > 10 µM (inactive).

With `CC(C)c1nnc(NC(=O)c2c(O)c3cccc4c3n(c2=O)CCC4)s1`, the IC50 is 4.37 µM.

For the compound `CCc1ccc(OCC(=O)NC(NC(=S)Nc2ccc(Cl)cc2)C(Cl)(Cl)Cl)cc1` (stereo not drawn), the IC50 result was “inactive”.

As to `CCOC(=O)C1=C(c2ccc(OC)cc2)C(=O)c2ccccc2C1=O`, the IC50 result was “inactive”.

`CCc1ccc(/C=c2\s/c(=C\C(=O)C(C)(C)C)[nH]c2=O)cc1`: the IC50 entry was “inactive”.

Take `C=C1C(=O)O[C@@H]2C[C@@H](C)[C@@H]3C=CC(=O)[C@@]3(C)[C@@H](OC(C)=O)[C@H]12`: the IC50 is 2.2 µM.

Turning to `Cc1cc(C)cc(OC2CCCCC2NS(=O)(=O)c2ccccc2)c1` (stereo not drawn), the IC50 is > 10 µM (inactive).

On to `Cc1nnc(NC(=O)c2sc3nc(-c4cccs4)cc(C(F)(F)F)c3c2N)s1`, for which the IC50 entry is “inactive”.

For `CS(=O)(=O)c1nc(-c2ccccc2)cc(C(F)(F)F)n1`, the IC50 entry is “inactive”.

`Cc1cc(C)c(S(=O)(=O)ON2C(=O)c3ccccc3C2=O)cc1C`: the IC50 was > 10 µM (inactive).

In the case of `O=C(O)CSCC(=O)Nc1ccc(C2CCCCC2)cc1`, the IC50 entry is “inactive”.

Take `Cc1ccc2c(C)nc(Nc3nc(CSc4nc5ccccc5[nH]4)cc(=O)[nH]3)nc2c1`: the IC50 entry was “inactive”.

Turning to `FC(F)(F)c1cccc(Sc2nc(-c3ccccc3)nnc2C(F)(F)F)c1`, the IC50 entry was “inactive”.

On to `CC(C)(C)c1ccc(C(=O)Nc2ccc(CC(=O)O)cc2)o1`, for which the IC50 is under 0.16 µM.

On to `CC(=O)C1=C(c2ccc(Br)cc2)C(=O)c2ccccc2C1=O`, for which the IC50 is 0.99 µM.

With `CCOc1ccc(C2C=C(c3ccc(C)cc3)Nc3nnnn32)cc1` (stereo not drawn), the IC50 was > 10 µM (inactive).

`COCCCn1c(N)c(C(=O)NCCC(C)C)c2nc3ccccc3nc21`: the IC50 was > 10 µM (inactive).

Consider `Cc1ccc(N2C(=O)NC(=O)/C(=C\C=C\c3ccco3)C2=O)cc1`, for which the IC50 result is “inactive”.

On to `COc1ccc(-c2[nH]ncc2N=Nc2cc(C)cc(C)c2)cc1`, for which the IC50 is > 10 µM (inactive).

For the compound `CC(C)(C)C(=O)NC(NC(=S)Nc1sc2c(c1C#N)CCCC2)C(Cl)(Cl)Cl` (stereo not drawn), the IC50 is > 10 µM (inactive).

As to `CC(C)CCn1c(=O)c(C(=O)N/N=C/c2cccc(F)c2)c(O)c2ccccc21`, the IC50 is 3.49 µM.

Consider `CCCC(=O)NC(NC(=S)Nc1ccc(N=Nc2ccccc2)cc1)C(Cl)(Cl)Cl` (stereo not drawn), for which the IC50 is > 10 µM (inactive).

In the case of `CC1=NN(c2nc(-c3ccc(C)cc3)cs2)C(=O)C1N=Nc1ccccc1O` (stereo not drawn), the IC50 result is “inactive”.

For the compound `CS(=O)(=O)c1ccc(S(=O)CC(=O)OCc2ccccc2)c([N+](=O)[O-])c1` (stereo not drawn), the IC50 entry was “inactive”.

On to `Fc1c(F)c(C(F)(F)F)c(F)c(F)c1N/N=C\c1cccs1`, for which the IC50 was 4.26 µM.

Regarding `NC(=O)c1ccc(C(F)(F)F)n(Cc2c(Cl)cccc2Cl)c1=O`, the IC50 entry was “inactive”.

As to `CCOc1cc(S(=O)(=O)Nc2ccccc2CC)ccc1Cl`, the IC50 was > 10 µM (inactive).

For `Cc1cc(/C=c2/sc3nc4ccccc4n3c2=O)c(C)n1-c1ccccn1`, the IC50 was under 0.16 µM.

Turning to `CCCN1C=CC(=C2C(=O)c3ccccc3C2=O)C=C1`, the IC50 result was “inactive”.

Regarding `Cc1cc(C(=O)N/N=C/c2ccc(-c3cccc(Cl)c3Cl)o2)n[nH]1`, the IC50 was > 10 µM (inactive).

Take `Cc1nc2ccccn2c1C(=O)N=Nc1c(O)n(CCC(C)C)c2ccccc12`: the IC50 is > 10 µM (inactive).

Take `C=CCOC(=O)C1=C(C)NC(C)=C(C(=O)OCC=C)C1/C=C/c1ccccc1`: the IC50 entry is “inactive”.

With `CCC1CCCCN1S(=O)(=O)c1ccc(C(=O)Nc2nnc(-c3ccccc3Cl)o2)cc1` (stereo not drawn), the IC50 entry is “inactive”.

Turning to `CCNc1nc(Oc2c(Cl)cccc2Cl)cc(C(F)(F)F)n1`, the IC50 was > 10 µM (inactive).

In the case of `CCCCCCn1c(=O)c(C(=O)Nc2cnccn2)c(O)c2ccccc21`, the concentration for half-maximal inhibition (IC50) was 1.8 µM.

Regarding `CNc1ccc2oc(C[C@H]3O[C@@]4(CC[C@H]3C)O[C@H]([C@H](C)C(=O)c3ccc[nH]3)[C@H](C)C[C@H]4C)nc2c1C(=O)O`, the IC50 was 1.41 µM.

For the origin of these results see PubChem BioAssay AID504313 (Emory University Molecular Libraries Screening Center, 2011).
